The values that follow are results of earlier work, collected in the PKSmart pharmacokinetics tables (Seal et al. 2025).

As a reminder, the MRT is the average time that molecules of a dose stay in the body. Usually Vd stands for the apparent volume that relates the amount in the body to the concentration in plasma or blood. By clearance is commonly meant the rate of elimination divided by the concentration. In general, half-life refers to the time needed for the level to fall by half in the phase considered. By fraction unbound is commonly meant free concentration divided by total concentration.

The nature of this data set: Lombardo, Berellini, Obach 2018, Drug Metab Dispos 46:1466, doi 10.1124/dmd.118.082966. As to conditions: human; for MRT / Vd / clearance / half-life: in vivo, iv; for fraction unbound: plasma.

*1 amine or outer side, *2 acyl side, *3 side chain or, on linkers, in order; H or OH if unused. Where a SMILES comes first, the peptide text is derived from it. Bridges are numbered along the chain shown (N, C = ends). [ ]: non-standard residue; d: D form. ξ: configuration not given here. ξPro(4R-OH) = O=C(O)C1C[C@@H](O)CN1; ξ2Thi = NC(Cc1cccs1)C(=O)O; ξR = N=C(N)NCCCC(N)C(=O)O; Iva = CC[C@](C)(N)C(=O)O; ξF = NC(Cc1ccccc1)C(=O)O; X3 = O=C(CCC[*:2])[*:1]; ξN = NC(=O)CC(N)C(=O)O; ξC = NC(CS)C(=O)O

As for `CCN(CC)Cc1cc(Nc2ccnc3cc(Cl)ccc23)ccc1O`, the mean residence time MRT is 1.34 h, the Vd was 17.4 L/kg, the clearance is 217 mL/min/kg and the half-life is 2.1 h.

On to `CON=C(C(=O)NC1C(=O)N2C(C(=O)[O-])=C(C[n+]3ccc(-c4cnco4)cc3)CS[C@H]12)c1csc(N)n1` (some centres undefined), for which the MRT was 2.64 h, the Vd was 0.22 L/kg, the clearance is 1.76 mL/min/kg and the half-life was 1.78 h.

In the case of `CN(C)c1cc(NC(=O)CNC(C)(C)C)c(O)c2c1C[C@H]1C[C@H]3[C@H](N(C)C)C(O)=C(C(N)=O)C(=O)[C@@]3(O)C(O)=C1C2=O`, the mean residence time (MRT) was 53 h, the Vd is 12 L/kg, the clearance was 3.8 mL/min/kg and the half-life is 48 h. Moreover, the unbound share (fraction unbound) was 0.2.

`CCc1cc2c(cc1N1CCC(N3CCOCC3)CC1)C(C)(C)c1[nH]c3cc(C#N)ccc3c1C2=O`: the MRT was 13.8 h, the Vd was 6.35 L/kg, the clearance was 7.69 mL/min/kg and the half-life is 11.7 h. Also, the fraction unbound was 0.003.

For `Cn1cc[nH]c1=S`, the MRT was 3.8 h, the Vd was 0.86 L/kg, the clearance was 3.7 mL/min/kg and the half-life was 2.4 h.

Take `CC(C)n1c(/C=C/[C@H](O)C[C@H](O)CC(=O)O)c(-c2ccc(F)cc2)c2ccccc21`: the mean residence time MRT is 0.44 h, the Vd is 0.42 L/kg and the half-life is 0.7 h.

Turning to `O=C(O)CCCC[C@@H]1CCSS1`, the mean residence time MRT was 0.14 h, the Vd was 0.1 L/kg, the clearance was 11.5 mL/min/kg and the half-life was 0.21 h.

In the case of `COc1ccccc1N1CCN(CCCNc2cc(=O)n(C)c(=O)n2C)CC1`, the MRT is 4 h, the distribution volume (Vd) was 0.75 L/kg, the clearance was 3.1 mL/min/kg and the half-life was 3.5 h.

On to `CC[C@]1(C)NC(=O)C(Cc2cccs2)NC(=O)C(Cc2ccccc2)NC(=O)CCCSCC(C(=O)N2C[C@H](O)CC2C(=O)NC(CCCNC(=N)N)C(=O)NCC(N)=O)NC(=O)C(CC(N)=O)NC1=O` (stereo partly drawn) ([ξF][ξ2Thi][Iva][ξN][ξC][ξPro(4R-OH)][ξR]G-NH2; linker N-5 via X3), for which the MRT was 5.63 h, the Vd was 0.31 L/kg, the clearance is 0.87 mL/min/kg and the half-life was 4.28 h.

On to `COC(=O)C[C@@](O)(CCCC(C)(C)O)C(=O)O[C@@H]1C(OC)=C[C@]23CCCN2CCc2cc4c(cc2[C@H]13)OCO4`, for which the mean residence time MRT is 10.2 h, the distribution volume (Vd) was 1.8 L/kg, the clearance is 2.96 mL/min/kg and the half-life was 9.8 h.

Consider `CO[C@]1(NC(=O)CSC(F)F)C(=O)N2C(C(=O)O)=C(CSc3nnnn3CCO)CO[C@@H]21`, for which the MRT is 0.77 h, the distribution volume (Vd) was 0.19 L/kg, the half-life is 0.6 h and the unbound share (fraction unbound) was 0.64.

For `Cn1c(=O)c2nc[nH]c2n(C)c1=O`, the half-life was 7.2 h.

`NC1CCN(c2c(F)cc3c(=O)c(C(=O)O)cn(C4CC4)c3c2Cl)C1` (centres undefined): the MRT was 6.7 h, the volume of distribution (Vd) was 1.9 L/kg, the clearance was 4.7 mL/min/kg and the half-life was 5.4 h.

For `CC(C)(N)CC(=O)NC1CCc2ccccc2N(Cc2ccc(-c3ccccc3-c3nnn[nH]3)cc2)C1=O` (centres undefined), the MRT is 1.1 h, the volume of distribution (Vd) is 0.2 L/kg, the clearance is 3.05 mL/min/kg and the half-life was 3.8 h. In addition, the fraction unbound was 0.06.

In the case of `C[C@@H](c1cccnc1F)c1c(CCN(C)C)sc2ccccc12`, the mean residence time MRT was 10 h, the volume of distribution (Vd) was 5.73 L/kg, the clearance was 10.4 mL/min/kg and the half-life is 15 h.

On to `Cc1onc(-c2ccccc2)c1-c1ccc(S(N)(=O)=O)cc1`, for which the MRT was 9.4 h, the Vd is 0.75 L/kg, the clearance is 1.4 mL/min/kg and the half-life was 7.4 h. In addition, the unbound share (fraction unbound) is 0.02.

For `CCCCCc1cc(O)c2c(c1)OC(C)(C)[C@@H]1CCC(C(=O)O)=C[C@@H]21`, the mean residence time MRT was 18.1 h, the Vd is 1.28 L/kg, the clearance is 1.2 mL/min/kg and the half-life was 17.6 h.

In the case of `COc1ccc(CNC[C@@H](O)COc2ccc3[nH]c(=O)ccc3c2)cc1OC`, the MRT was 3.2 h, the Vd is 1.6 L/kg, the clearance was 8.9 mL/min/kg and the half-life is 3.3 h.

`CC(C)(C(=O)O)c1ccc(C(=O)CCCN2CCC(OC(c3ccccc3)c3ccccc3)CC2)cc1`: the MRT was 16.7 h, the Vd was 0.41 L/kg, the clearance was 0.4 mL/min/kg and the half-life is 9.8 h. Further, the fraction unbound was 0.05.

Regarding `Cn1c(CNc2ccc(C(=N)N)cc2)nc2cc(C(=O)N(CCC(=O)O)c3ccccn3)ccc21`, the MRT was 7.4 h, the distribution volume (Vd) is 0.85 L/kg, the clearance was 1.93 mL/min/kg and the half-life is 7.3 h. The fraction unbound is 0.65.

On to `CC1=C(C(=O)O)N2C(=O)C(NC(=O)C(N)c3ccc(O)cc3)[C@H]2SC1` (some centres undefined), for which the MRT is 1.5 h, the Vd is 0.23 L/kg, the clearance was 2.5 mL/min/kg and the half-life is 1.1 h.

In the case of `Cc1cccc(Cl)c1C(=O)NC(Cc1ccc(NC(=O)c2c(Cl)cncc2Cl)cc1)C(=O)O` (centres undefined), the mean residence time MRT is 1.3 h, the Vd is 0.3 L/kg, the clearance was 3.7 mL/min/kg and the half-life was 3.3 h. Besides, the fraction unbound is 0.1.

For `COc1ccc(CCN(C)CCC[C@](C#N)(c2cc(OC)c(OC)c(OC)c2)C(C)C)cc1OC`, the MRT is 2.04 h, the distribution volume (Vd) was 1.75 L/kg, the clearance was 14.3 mL/min/kg and the half-life was 1.8 h. The free fraction (fraction unbound) is 0.07.

As for `CC(C)(C)C(NC(=O)C(CC1CCCC1)CN(O)C=O)C(=O)N1CCN(Cc2ccc3c(c2)OCO3)CC1` (centres undefined), the MRT was 5.9 h, the Vd is 1.1 L/kg, the clearance was 3.1 mL/min/kg and the half-life was 9.4 h. The unbound share (fraction unbound) is 0.2.

In the case of `C[C@@H]1C[C@H]2C3C[C@H](F)C4=CC(=O)C=C[C@]4(C)[C@@]3(F)[C@@H](O)C[C@]2(C)[C@@]1(OC(=O)c1ccco1)C(=O)SCF` (some centres undefined), the Vd was 4.95 L/kg, the clearance was 13.4 mL/min/kg and the half-life is 10.6 h.

Regarding `Cc1onc(-c2c(F)cccc2Cl)c1C(=O)NC1C(=O)N2C(C(=O)O)C(C)(C)S[C@H]12` (some centres undefined), the MRT is 1.3 h, the distribution volume (Vd) was 0.19 L/kg, the clearance was 2.4 mL/min/kg and the half-life is 1.4 h. For the same compound, the unbound share (fraction unbound) was 0.043.
